# Assay results reported in the supplement of paper PMC10307832.
# Assays:
# [1] = compound: CC(C)CCN1c2nc(Nc3cc(F)c(O)c(F)c3)ncc2N(C)C(=O)C1C [BI-D1870] + COc1cc2c(Oc3ccc(NC(=O)C4(C(=O)Nc5ccc(F)cc5)CC4)cc3F)ccnc2cc1OCCCN1CCOCC1 [Foretinib] (partner 0.25 µM); test: relative viability (nuclei count vs DMSO), 5 days (fraction); higher = more cells survive
# How it was run: (§1)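 Cells from lung cancer lines were seeded into 1536-well plates and, one day later, dosed by pin tool. Treatments were either a single drug or a fixed dose of an anchor drug with five library-drug doses (not always all listed) in √10 steps. After 5 days, nuclei were stained in a one-step fixation (final 0.05% Triton X-100, 1% formaldehyde, 1 ug/ml Hoechst) and counted on 4× images, and relative viability is the treated-to-vehicle nuclei ratio, as the median of duplicate plates.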
# [2] = compound: O=c1ncccn1[C@@H]1O[C@H](CO)[C@@H](O)[C@H]1O [Zebularine] + Cc1cc(Nc2cc(N3CCN(C)CC3)nc(Sc3ccc(NC(=O)C4CC4)cc3)n2)n[nH]1 [Tozasertib] (partner 0.1 µM); test: as above
# How it was run: as §1
Cell Line,relative viability ([1]; first compound 0.04 µM),relative viability ([1]; first compound 0.1265 µM),relative viability ([1]; first compound 0.4 µM),relative viability ([1]; first compound 1.265 µM),relative viability ([1]; first compound 4 µM),relative viability ([2]; first compound 1 µM),relative viability ([2]; first compound 3.162 µM),relative viability ([2]; first compound 10 µM),relative viability ([2]; first compound 31.62 µM),relative viability ([2]; first compound 100 µM)
NCI-H650,1.03,0.937,0.968,1.04,0.894,0.756,0.656,0.524,0.346,0.238
NCI-H1666,1.1,0.936,0.952,1.07,0.963,0.612,0.633,0.538,0.662,0.486
NCI-H2085,0.82,0.869,0.832,0.824,0.754,0.9,0.804,0.688,0.609,0.529
NCI-H1734,0.881,0.827,0.883,0.936,0.837,0.284,0.247,0.263,0.206,0.207
NCI-H2126,1.23,1.14,1.22,1.15,1.06,0.911,0.807,0.727,0.791,0.479
EMC-BAC-2,1.07,0.875,0.918,1.09,1.02,0.326,0.313,0.266,0.28,0.313
NCI-H1993,0.777,0.659,0.715,0.784,0.842,0.593,0.582,0.53,0.614,0.573
NCI-H520,0.821,0.724,0.741,0.958,0.818,0.43,0.561,0.353,0.269,0.25
NCI-H647,1.11,1.18,1.13,1.35,1.17,0.284,0.353,0.152,0.144,0.265
SK-LU-1,0.86,0.676,0.739,0.798,0.525,0.378,0.34,0.254,0.302,0.29
ChaGo-K-1,1.01,0.85,0.857,1.04,0.956,0.22,0.208,0.211,0.172,0.195
NCI-H2342,1.04,1,1.11,1.18,1.23,0.451,0.4,0.446,0.476,0.469
NCI-H1299,1.13,1.07,1.08,1.08,0.952,–,–,–,–,–
NCI-H1650,1.31,0.756,1.08,1.18,1.27,0.509,0.308,0.325,0.361,0.341
NCI-H2009,1.31,1.09,1.23,1.12,1,0.891,0.737,0.497,0.659,0.297
LOU-NH91,0.979,0.897,0.876,1.01,0.817,0.7,0.641,0.68,0.704,0.384
NCI-H2405,1.09,0.994,1.01,1.05,0.859,0.758,0.81,0.704,0.724,0.485
SW 900,0.855,0.949,0.893,0.751,1.22,0.659,0.548,0.445,0.478,0.371

Cell Line,relative viability ([1]; first compound 0.04 µM),relative viability ([1]; first compound 0.1265 µM),relative viability ([1]; first compound 0.4 µM),relative viability ([1]; first compound 1.265 µM),relative viability ([1]; first compound 4 µM),relative viability ([2]; first compound 1 µM),relative viability ([2]; first compound 3.162 µM),relative viability ([2]; first compound 10 µM),relative viability ([2]; first compound 31.62 µM),relative viability ([2]; first compound 100 µM)
LCLC-97TM1,1.1,0.975,0.893,1.09,0.843,0.253,0.225,0.191,0.102,0.115
NCI-H596,0.882,0.918,0.889,0.849,0.958,0.847,1.1,0.618,0.958,0.845
NCI-H727,0.793,0.931,0.883,0.871,0.739,0.639,0.645,0.602,0.623,0.386
H3255,0.784,0.915,0.953,1.09,0.849,0.542,0.61,0.271,0.106,0.627
SK-MES-1,0.871,0.77,0.706,0.868,0.769,1.02,0.991,0.599,0.611,0.248
NCI-H1437,1.35,1.24,1.19,1.25,1.14,0.44,0.381,0.254,0.397,0.304
NCI-H1648,–,–,–,–,–,0.551,0.418,0.407,0.342,0.379
LU99A,0.913,0.683,0.696,0.788,0.796,0.296,0.276,0.239,0.261,0.159
NCI-H522,–,–,–,–,–,0.549,0.526,0.527,0.522,0.577
HCC-827,1.05,0.968,0.967,1.06,1.03,0.417,0.445,0.306,0.373,0.196
LK-2,1.32,1.13,1.34,1.51,1.6,0.179,0.188,0.171,0.178,0.166
HCC-366,0.957,0.906,0.932,0.896,0.943,0.169,0.112,0.182,0.132,0.0608
BEN,0.654,0.609,0.76,1.16,0.77,0.612,0.563,0.379,0.354,0.43
NCI-H23,1,1.03,0.986,0.83,0.781,0.36,0.382,0.234,0.462,0.284
NCI-H1395,1.03,0.92,0.964,1.05,0.981,0.72,0.707,0.647,0.501,0.479
A549,1.08,0.958,1.01,0.963,0.747,–,–,–,–,–
NCI-H1563,0.957,0.927,0.939,1.04,0.967,–,–,–,–,–
